Reference: PubChem BioAssay AID256 (DTP/NCI, 2004)
Several values for one entry are separate records, joined by “and”; a condition that tells them apart may be missing. Equal entries are not always repeated. Toxic doses and inconclusive results are not listed. Rule for the calls: active = survival T/C of 150% or more; inactive = T/C below 125% in these data.

Test system: CD2F1 mice, L1210 leukemia ip, survival T/C
Assay: NCI In Vivo Anticancer Drug Screen. Data for tumor model L1210 Leukemia (intraperitoneal) in CD2F1 (CDF1) mice
Conditions: higher = longer survival
Outline: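 Compound-dosed mice with transplantable tumor versus matched vehicle controls; endpoint ratio T/C reported.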

[1] = endpoint: mean survival time, dose: 50.0 mg/kg/injection, schedule: Q01DX009 (ip), vehicle: saline with Tween-80
[2] = endpoint: mean survival time, dose: 100.0 mg/kg/injection, schedule: Q01DX009 (ip), vehicle: saline with Tween-80
[3] = endpoint: mean survival time, dose: 100.0 mg/kg/injection, schedule: Q04DX003 (ip), vehicle: saline
[4] = endpoint: mean survival time, dose: 200.0 mg/kg/injection, schedule: Q01DX009 (ip), vehicle: saline with Tween-80
[5] = endpoint: mean survival time, dose: 200.0 mg/kg/injection, schedule: Q04DX003 (ip), vehicle: saline
[6] = endpoint: mean survival time, dose: 400.0 mg/kg/injection, schedule: Q01DX009 (ip), vehicle: saline with Tween-80
[7] = endpoint: mean survival time, dose: 100.0 mg/kg/injection, schedule: Q01DX001 (ip), vehicle: saline with Tween-80
[8] = endpoint: mean survival time, dose: 200.0 mg/kg/injection, schedule: Q01DX001 (ip), vehicle: saline with Tween-80
[9] = endpoint: mean survival time, dose: 400.0 mg/kg/injection, schedule: Q01DX001 (ip), vehicle: saline with Tween-80

Measured: T/C

Cc1cc(C)c(C(=O)C(=S)N2CCOCC2)c(C)c1
inactive: endpoint: mean survival time, dose: 100.0 mg/kg/injection, schedule: Q04DX003 (ip), vehicle: acetone 98 % of control | endpoint: mean survival time, dose: 200.0 mg/kg/injection, schedule: Q04DX003 (ip), vehicle: acetone 104 % of control | endpoint: mean survival time, dose: 400.0 mg/kg/injection, schedule: Q04DX003 (ip), vehicle: acetone 93 % of control

CC1CN=C(c2ccc(NC(=O)Nc3ccc(NC(=O)c4ccc(C5=NCC(C)N5)cc4)cc3)cc2)N1 (centres undefined)
inactive: endpoint: mean survival time, dose: 26.0 mg/kg/injection, schedule: Q01DX Z (ip), vehicle: water 90 % of control

CCCCCCCCCCCCCCCCCCNC(=S)NCCCCCCCCCCCCCCCCCC
inactive: endpoint: mean survival time, dose: 12.5 mg/kg/injection, schedule: Q01DX009 (ip), vehicle: saline with Tween-80 97 % of control | endpoint: mean survival time, dose: 25.0 mg/kg/injection, schedule: Q01DX009 (ip), vehicle: saline with Tween-80 98 % of control | [1] 90 % of control and 98 % of control | [2] 90 % of control

Cc1nc(N)n[nH]1
inactive: [2] 92 % of control | [3] 102 % of control | [4] 97 % of control | [5] 100 % of control | [6] 88 % of control | endpoint: mean survival time, dose: 400.0 mg/kg/injection, schedule: Q04DX003 (ip), vehicle: saline 96 % of control

CO[C@@]12[C@H](COC(N)=O)C3=C(C(=O)C(C)=C(NCCO)C3=O)N1C[C@@H]1N[C@@H]12
inactive: endpoint: mean survival time, dose: 10.2 mg/kg/injection, schedule: Q01DX001 (ip), vehicle: saline 96 % of control | endpoint: mean survival time, dose: 15.5 mg/kg/injection, schedule: Q01DX001 (ip), vehicle: saline 96 % of control | endpoint: mean survival time, dose: 23.2 mg/kg/injection, schedule: Q01DX001 (ip), vehicle: saline 112 % of control

Cc1ccc([N+](=O)[O-])cc1NC(=O)Nc1ccon1
inactive: endpoint: mean survival time, dose: 50.0 mg/kg/injection, schedule: Q01DX009 (ip), vehicle: Klucel (hydroxypropylcellulose) (HPC) 108 % of control | endpoint: mean survival time, dose: 100.0 mg/kg/injection, schedule: Q01DX009 (ip), vehicle: Klucel (hydroxypropylcellulose) (HPC) 96 % of control | endpoint: mean survival time, dose: 200.0 mg/kg/injection, schedule: Q01DX009 (ip), vehicle: Klucel (hydroxypropylcellulose) (HPC) 98 % of control

CC(C)(C)c1cc(/C=N/NC(=O)CNC(=O)NCc2ccco2)cc(C(C)(C)C)c1O
inactive: [1] 93 % of control | [2] 101 % of control | [4] 104 % of control

COC(=O)NC1C(C)OC(OC2C/C=C(/C)C3C=CC4C(OC5CC(OC6CC(OC7CC(O)C(O)C(C)O7)C(OC7CC(O)C(OC)C(C)O7)C(C)O6)C(O)C(C)O5)C(C)CC(C)C4C3(C)/C(O)=C3\C(=O)OC4(CC(C)C(CO)=CC4/C=C\2C)C3=O)CC1(C)[N+](=O)[O-] (centres undefined)
inactive: endpoint: median survival time, dose: 12.5 mg/kg/injection, schedule: Q01DX009 (ip), vehicle: water 109 % of control | endpoint: median survival time, dose: 25.0 mg/kg/injection, schedule: Q01DX009 (ip), vehicle: water 118 % of control | endpoint: median survival time, dose: 50.0 mg/kg/injection, schedule: Q01DX009 (ip), vehicle: water 110 % of control

CCOC(=O)NCC1CCC(CO)CC1 (centres undefined)
inactive: endpoint: mean survival time, dose: 100.0 mg/kg/injection, schedule: Q04DX002 (ip), vehicle: saline with Tween-80 95 % of control | endpoint: mean survival time, dose: 200.0 mg/kg/injection, schedule: Q04DX002 (ip), vehicle: saline with Tween-80 117 % of control | endpoint: mean survival time, dose: 400.0 mg/kg/injection, schedule: Q04DX002 (ip), vehicle: saline with Tween-80 98 % of control

CCOC(=O)CC(O)c1ccccc1 (centres undefined)
inactive: [1] 102 % of control | [2] 102 % of control | [4] 98 % of control

S=[As]c1ccccc1 (centres undefined)
inactive: endpoint: mean survival time, dose: 100.0 mg/kg/injection, schedule: Q01DX001 (ip), vehicle: saline 100 % of control | endpoint: mean survival time, dose: 200.0 mg/kg/injection, schedule: Q01DX001 (ip), vehicle: saline 97 % of control | endpoint: mean survival time, dose: 400.0 mg/kg/injection, schedule: Q01DX001 (ip), vehicle: saline 107 % of control

C#CC(CC(C)CC(C)(C)C)N(C)C (centres undefined)
inactive: [2] 98 % of control

Cc1ccccc1NC(=O)/C=C\C(=O)O
inactive: endpoint: mean survival time, dose: 20.0 mg/kg/injection, schedule: Q01DX009 (ip), vehicle: saline with Tween-80 105 % of control | endpoint: mean survival time, dose: 20.0 mg/kg/injection, schedule: Q04DX003 (ip), vehicle: saline with Tween-80 102 % of control | endpoint: mean survival time, dose: 40.0 mg/kg/injection, schedule: Q01DX009 (ip), vehicle: saline with Tween-80 104 % of control | endpoint: mean survival time, dose: 40.0 mg/kg/injection, schedule: Q04DX003 (ip), vehicle: saline with Tween-80 97 % of control | endpoint: mean survival time, dose: 80.0 mg/kg/injection, schedule: Q01DX009 (ip), vehicle: saline with Tween-80 102 % of control | endpoint: mean survival time, dose: 80.0 mg/kg/injection, schedule: Q04DX003 (ip), vehicle: saline with Tween-80 97 % of control

O=C1/C(=C/c2ccccc2)CCSc2ccccc21
inactive: [7] 90 % of control | [8] 94 % of control | [9] 90 % of control

O=c1[nH][nH]c2nccnc12
inactive: endpoint: mean survival time, dose: 12.5 mg/kg/injection, schedule: Q01DX005 (ip), vehicle: water 93 % of control | endpoint: mean survival time, dose: 25.0 mg/kg/injection, schedule: Q01DX005 (ip), vehicle: water 93 % of control | endpoint: mean survival time, dose: 50.0 mg/kg/injection, schedule: Q01DX005 (ip), vehicle: water 96 % of control | endpoint: mean survival time, dose: 100.0 mg/kg/injection, schedule: Q01DX005 (ip), vehicle: water 98 % of control | endpoint: mean survival time, dose: 200.0 mg/kg/injection, schedule: Q01DX005 (ip), vehicle: water 101 % of control

Nc1ccc2c(c1)-c1ccccc1C2O (centres undefined)
inactive: endpoint: mean survival time, dose: 100.0 mg/kg/injection, schedule: Q04DX003 (ip), vehicle: saline with Tween-80 92 % of control | endpoint: mean survival time, dose: 200.0 mg/kg/injection, schedule: Q04DX003 (ip), vehicle: saline with Tween-80 101 % of control | endpoint: mean survival time, dose: 400.0 mg/kg/injection, schedule: Q04DX003 (ip), vehicle: saline with Tween-80 99 % of control

N#CC(C#N)=C1CCN2CCCc3cccc1c32
inactive: [7] 100 % of control | [8] 95 % of control | [9] 111 % of control

COc1ccc(C[As+](c2ccccc2)(c2ccccc2)c2ccccc2)cc1
inactive: endpoint: mean survival time, dose: 5.0 mg/kg/injection, schedule: Q01DX001 (ip), vehicle: saline 102 % of control | endpoint: mean survival time, dose: 10.0 mg/kg/injection, schedule: Q01DX001 (ip), vehicle: saline 95 % of control | endpoint: mean survival time, dose: 20.0 mg/kg/injection, schedule: Q01DX001 (ip), vehicle: saline 98 % of control | endpoint: mean survival time, dose: 40.0 mg/kg/injection, schedule: Q01DX001 (ip), vehicle: saline 100 % of control

CC(N)C(=O)c1ccccc1 (centres undefined)
inactive: [3] 105 % of control | [5] 94 % of control

Nc1nc(Br)c2ccccc2c1-c1ccc([N+](=O)[O-])cc1
inactive: endpoint: mean survival time, dose: 50.0 mg/kg/injection, schedule: Q04DX003 (ip), vehicle: DMSO 98 % of control | endpoint: mean survival time, dose: 100.0 mg/kg/injection, schedule: Q04DX003 (ip), vehicle: DMSO 96 % of control | endpoint: mean survival time, dose: 200.0 mg/kg/injection, schedule: Q04DX003 (ip), vehicle: DMSO 95 % of control | endpoint: mean survival time, dose: 400.0 mg/kg/injection, schedule: Q04DX003 (ip), vehicle: DMSO 95 % of control

Cc1c(C(=O)O)cc([N+](=O)[O-])cc1[N+](=O)[O-]
inactive: [2] 102 % of control | [4] 100 % of control | [6] 96 % of control
